Laboratory results: patent US20070059785A1, “Biomarkers in cancer” (SMITHKLINE BEECHAM CORPORATION, priority 2003, published 2007)

Legend:
AKT [1] = assay: HN5 tumor xenograft, p-AKT and total AKT by Western blot; type: in vivo, CD-1 nude mice
Protocol: (§1) Total Erk1/2, total AKT, activated Erk1/2 (p-Erk1/2), and activated AKT (p-AKT) were assessed by Western blot loading equal amounts of protein from tumor biopsies.
(§2) HN5 cells were grown in DMEM supplemented with 10% fetal bovine serum, sodium pyruvate and L-glutamine at 37° C. in a 95/5% air/CO2 atmosphere. […] Cells (2×10^6/mouse) in 0.2 ml were injected into the right flank of CD-1 nude mice. Female CD-1 nude mice were acquired from Charles River Laboratories. Mice were maintained in filter-topped cages in an aseptic environment with laminar flow filtered ventilation. […] Tumors were biopsied pre-treatment and 4 hours after the last dose. All animal surgery was conducted under aseptic conditions. For the initial biopsy, mice were anesthetized with isofluorane inhalation. The skin over the tumor was disinfected with iodine. A small hemostat was used to tease away the skin from the tumor, and scissors were used to make a 1 cm incision over the tumor. A scalpel and forceps were used to remove approximately 100 mg of tumor. The tumor was then frozen in liquid nitrogen. Wound clips were used to close the incision. The anesthetized mice were kept warm until they recovered mobility, usually less than 1-2 minutes. For the terminal biopsy, mice were euthanized with CO2 inhalation, and the remainder of the tumor excised. HN5 tumors were placed on dry ice in vials containing cold isopentane, and stored at −80 C prior to study. BT474 tumor samples were fixed for 2-3 hours in phosphatase inhibitor consisting of sodium fluoride and sodium pervanadate in 10% neutral buffered formalin. Following fixative treatment, BT474 samples were washed in water and stored in 70% ethanol prior to study. Cell extracts were prepared by homogenization in RIPA buffer at 4° C.
as §1

pAKT = assay: Clinical tumor biopsies, p-AKT by quantitative IHC
Source text: DAB (Dako) was used as the chromogen.
“pAKT” refers to phosphorylated AKT as measured by immunohistochemistry and reported in OD;

AKT [2] = assay: Western blot of p-AKT in BT474 cells; type: cell-based, human; conditions: BT474, 1 μM, 24 h serum-free; not reversed by EGF
Protocol: (§3) The erbB2 overexpressing human breast adenocarcinoma cell line, BT474, was obtained from the American Type Culture Collection (Rockville, M, USA). […] The EGFR overexpressing LICR-LON-HN5 head and neck carcinoma cell line, HN5, was kindly provided by Helmout Modjtahedi at the Institute of Cancer Research, Surrey, U.K.
(§4) For IP Western blots, equivalent amounts of protein were precleared with Protein G Plus/Protein A agarose overnight at 4° C. Precleared lysates were then incubated overnight at 4° C. with specific antibodies. Immune complexes were precipitated with Protein G Plus/Protein A agarose beads, washed in RIPA buffer and then boiled in sample loading buffer. Steady state levels of total Erk1/2 and activated Erk1/2 (p-Erk) as well as total AKT protein and activated AKT (p-AKT) protein were assessed by Western blot. […] Proteins were transferred to Immobilon-P or nitrocellulose membranes. Efficiency and equal loading of proteins was evaluated by Ponceau S staining. Membranes were blocked for 1 hr in TBS (25 mM Tris-HCl, pH 7.4, 150 mM NaCl, 2.7 mM KCl) containing 4% (w/v) lowfat milk or 3% BSA (w/v). Membranes were then probed with specific antibodies recognizing target proteins. Proteins were visualized with the SUPERSIGNAL® West Femto Maximum sensitivity substrate kit (Pierce).
BT474 is an erbB2 overexpressing breast carcinoma line that also expresses EGFR, albeit at lower levels. […]

erbB2 [3] = molecular target: T1, erbB2 (Homo sapiens, UniProt P04626); assay: IP Western blot of p-Tyr/erbB2 in BT474 cells, with or without EGF; type: cell-based; set-up: endogenous in cells; conditions: BT474, 1 μM, 24 h serum-free; not reversed by EGF
T1 sequence (P04626 23-1255): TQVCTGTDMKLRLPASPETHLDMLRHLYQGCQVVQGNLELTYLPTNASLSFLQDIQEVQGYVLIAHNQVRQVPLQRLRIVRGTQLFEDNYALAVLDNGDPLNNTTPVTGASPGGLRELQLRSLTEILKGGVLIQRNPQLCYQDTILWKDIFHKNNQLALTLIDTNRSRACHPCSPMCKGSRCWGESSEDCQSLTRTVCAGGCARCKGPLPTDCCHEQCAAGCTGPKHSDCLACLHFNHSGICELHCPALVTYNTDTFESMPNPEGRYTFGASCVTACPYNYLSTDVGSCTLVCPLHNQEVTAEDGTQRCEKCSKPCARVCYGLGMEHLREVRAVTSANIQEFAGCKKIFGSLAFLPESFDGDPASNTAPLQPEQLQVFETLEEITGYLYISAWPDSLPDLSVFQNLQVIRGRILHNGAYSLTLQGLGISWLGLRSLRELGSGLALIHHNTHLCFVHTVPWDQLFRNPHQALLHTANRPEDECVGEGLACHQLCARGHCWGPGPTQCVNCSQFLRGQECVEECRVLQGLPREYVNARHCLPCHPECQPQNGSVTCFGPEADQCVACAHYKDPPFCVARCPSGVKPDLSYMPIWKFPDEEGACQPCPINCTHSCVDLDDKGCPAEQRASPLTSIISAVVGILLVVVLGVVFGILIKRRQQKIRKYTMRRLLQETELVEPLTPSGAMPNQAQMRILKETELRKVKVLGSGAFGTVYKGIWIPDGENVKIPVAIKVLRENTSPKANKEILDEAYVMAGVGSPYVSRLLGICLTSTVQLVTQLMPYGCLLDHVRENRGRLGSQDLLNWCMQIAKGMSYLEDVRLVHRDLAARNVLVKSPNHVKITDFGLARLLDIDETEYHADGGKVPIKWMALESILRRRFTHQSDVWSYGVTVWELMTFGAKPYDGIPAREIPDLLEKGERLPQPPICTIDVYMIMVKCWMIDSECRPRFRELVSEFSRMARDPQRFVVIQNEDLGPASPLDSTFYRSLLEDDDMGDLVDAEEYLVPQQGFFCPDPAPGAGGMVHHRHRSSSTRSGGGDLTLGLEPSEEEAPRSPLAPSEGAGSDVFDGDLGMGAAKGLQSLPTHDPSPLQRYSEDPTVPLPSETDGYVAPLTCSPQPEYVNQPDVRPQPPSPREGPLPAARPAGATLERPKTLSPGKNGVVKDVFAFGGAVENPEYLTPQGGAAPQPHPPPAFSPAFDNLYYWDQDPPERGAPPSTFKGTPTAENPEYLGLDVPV
Protocol: as §3
(§5) Cell cultures were maintained in a humidified atmosphere of 5% CO2 at 37° C.
(§6) Protein concentrations were determined using a modification of the Bradford method (Bio-Rad Laboratory).
as §4, with “Proteins were visualized with the SUPERSIGNAL® West Femto Maximum sensitivity substrate kit (Pierce).” left out

Erk1/2 [4] = assay: HN5 tumor xenograft, p-Erk1/2 and total Erk1/2 by Western blot; type: in vivo, CD-1 nude mice
Protocol: as §1, §2, §1

p-Erk1/2 = assay: Clinical tumor biopsies, p-ERK index by quantitative IHC; conditions: patient 364, head and neck cancer, 1600 mg/day, Day 21
Protocol: DAB (Dako) was used as the chromogen.
To quantify changes in Erk1/2 activation state, a p-Erk index was established for each biopsy. The p-Erk index was the product of the percentage of cells staining positive for p-Erk1/2 in the tissue section and the OD value for p-Erk1/2 immunoreactivity. Investigators preparing and analyzing tissue sections were blinded to both patient tumor type and response to therapy.
“pERK index” is calculated by multiplying the percentage of cells staining positive for p-Erk and the optical density (OD) score, ×100;

Erk1/2 [5] = assay: Western blot of p-Erk1/2 in BT474 cells; type: cell-based, human; conditions: for p-Erk1/2: BT474, exponentially growing, 72 h
Protocol: as §3, §4
BT474 is an erbB2 overexpressing breast carcinoma line that also expresses EGFR, albeit at lower levels. BT474 cells constitutively express activated erbB2 (p-Tyr/erbB2). […] Cell lysates were prepared and total Erk1/2 and activated Erk1/2 (p-Erk1/2) were assessed by Western blot.

Hb4a cells = assay: Hb4a cell growth, viable cell count by trypan blue exclusion; type: cell-based; conditions: Homo sapiens, 72 h, serum-free, three independent experiments, read-out: inhibition of cell growth compared with vehicle treated controls
Protocol: Exponentially growing Hb4a cells were cultured in 35 mm petri dishes with serum-free medium containing 1.5% BSA. […] Viable cells were counted after 72 h using trypan blue exclusion.

erbB2 [6] = molecular target: T1, erbB2; assay: Clinical tumor biopsies, erbB2 p-tyr by IHC; conditions: patient 361, 1200 mg/day, Day 21, data not shown
Erk1/2 [7] = assay: Western blot of p-Erk1/2 in HN5 cells; type: cell-based, human; conditions: for p-Erk1/2: HN5, exponentially growing, 72 h
Protocol: as §3, §4
Cell lysates were prepared and total Erk1/2 and activated Erk1/2 (p-Erk1/2) were assessed by Western blot.

erbB2 [8] = molecular target: T1, erbB2; assay: IP Western blot of activated erbB2 (p-Tyr/erbB2) in S1 cells; type: cell-based; set-up: endogenous in cells; conditions: 72 h
Protocol: FIG. 1. […] The erbB2 overexpressing human breast adenocarcinoma cell line, BT474, was obtained from the American Type Culture Collection (Rockville, M, USA). […] The EGFR overexpressing LICR-LON-HN5 head and neck carcinoma cell line, HN5, was kindly provided by Helmout Modjtahedi at the Institute of Cancer Research, Surrey, U.K.
as §5, §6
as §4, with “Proteins were visualized with the SUPERSIGNAL® West Femto Maximum sensitivity substrate kit (Pierce).” left out

`CS(=O)(=O)CCNCc1ccc(-c2ccc3ncnc(Nc4ccc(OCc5cccc(F)c5)c(Cl)c4)c3c2)o1` [GW572016, N-{3-Chloro-4-[(3-fluorobenzyl)oxy]phenyl}-6-[5-({[2-(methylsulfonyl)ethyl]amino}methyl)-2-furyl]-4-quinazolinamine] was tested, and the “effect on p-AKT” value (AKT [1]; 10 mg/kg, data not shown) was “little effect”, the p-AKT in tumors (AKT [1]; 30 mg/kg/dose) was “inhibited” and the “total steady state AKT protein levels” value (AKT [1]; 30 mg/kg/dose) was “without affecting”. The “p-AKT OD” value (pAKT; patient 361, breast, 1200 mg/d, day 21 (day 0: 36)) was 24 OD, the “p-AKT OD” value (pAKT; patient 362, adenocarcinoma unknown primary, 900 mg/d, day 21 (day 0: 61)) was 81 OD and the “p-AKT OD” value (pAKT; patient 363, sarcoma, 500 mg/d, day 21 (day 0: 19)) was 32 OD. For the same compound, the “reduction of p-AKT” value (pAKT; patient 364, 1600 mg/day, Day 21) was 16%, the “p-AKT OD” value (pAKT; patient 364, head & neck, 1600 mg/d, day 21 (day 0: 51)) was 43 OD and the “p-AKT OD” value (pAKT; patient 366, ovarian, 900 mg/d, day 21 (day 0: 22), aberrant staining, not considered valid) was 47 OD. The “p-AKT OD” value (pAKT; patient 367, adenocarcinoma unknown primary, 650 mg/d, day 21 (day 0: 35)) was 25 OD, the “p-AKT OD” value (pAKT; patient 369, head & neck, 1200 mg/d, day 21 (day 0: 24)) was 7 OD and the “p-AKT OD” value (pAKT; patient 371, breast, 900 mg/d, day 21 (day 0: 36)) was 33 OD. For the same compound, the “p-AKT OD” value (pAKT; patient 372, breast, 1200 mg/d, day 21 (day 0: 48)) was 30 OD, the pAKT (pAKT; patient 425, inflammatory breast cancer, 1200 mg/d ditosylate salt, day 21 (day 0: 85)) was 26 OD and the “intensity of pAkt staining, particularly in the nuclei” value (pAKT; patient 425, post-treatment tumor sample, IHC, results not shown) was “greatly reduced”. The p-AKT (AKT [2]) was “completely inhibited”, the “baseline levels of p-Tyr/erbB2” value (erbB2 [3]) was “inhibited” and the “effect on p-Erk1/2” value (Erk1/2 [4]; 10 mg/kg, data not shown) was “little effect”. For the same compound, the p-Erk1/2 in tumors (Erk1/2 [4]; 30 mg/kg/dose) was “inhibited”, the “total steady state Erk1/2 protein levels” value (Erk1/2 [4]; 30 mg/kg/dose) was “without affecting” and the “decrease in p-Erk1/2” value (p-Erk1/2) was over 90%. The “EGF stimulation of p-Erk1/2” value (Erk1/2 [5]; BT474, 1 μM, 24 h serum-free, EGF 50 ng/ml) was “inhibited”, the “total Erk1/2 steady state protein levels” value (Erk1/2 [5]; BT474, 72 h, GW572016 0.5 or 1 μM, Herceptin 10 μg/ml) was “Neither Herceptin™ nor GW572016 reduced” and the p-Erk1/2 (Erk1/2 [5]; 500 nM) was “inhibited”. The p-Erk1/2 (Erk1/2 [5]; 1 μM) was “inhibited”, the inhibition at 2.5 µM (Hb4a cells) was 50% and the erbB2 p-tyr (erbB2 [6]) was “had not decreased”. For the same compound, the “downstream p-Erk1/2” value (Erk1/2 [7]; HN5, 5 μM, 24 h serum-free, not reversed by EGF) was “inhibited”, the “total Erk1/2 steady state protein levels” value (Erk1/2 [7]; HN5, 72 h, GW572016 0.5 or 1 μM, Herceptin 10 μg/ml) was “Neither Herceptin™ nor GW572016 reduced” and the p-Erk1/2 (Erk1/2 [7]; 500 nM) was “inhibited”. The p-Erk1/2 (Erk1/2 [7]; 1 μM) was “inhibited”, the “inhibition of erbB2 tyrosine phosphorylation (p-Tyr/erbB2)” value (erbB2 [8]; 500 nM) was “Partial inhibition” and the “inhibition of erbB2 tyrosine phosphorylation (p-Tyr/erbB2)” value (erbB2 [8]; 2.5 μM) was “complete inhibition”.
